System: Men who have advance prostate cancer on ADT
Assay: Effect of cis-clomiphene on bone turnover markers and BMD (Example 2)
Type: in vivo, human
Conditions: 50 mg/d for 6 months, Day 180 compared with baseline
Description: Men who have advance prostate cancer on ADT are treated with 50 mg/d of substantially cis-clomiphene for 6 months. At Day 180, baseline bone turnover markers like serum bone specific alkaline phosphatase and are compared to current values as well as BMD by DEXA.
Bone analysis methodology may be carried out as described in U.S. Patent Publication No. 2004/0214898, the pertinent contents of which are incorporated herein by reference.

## CCN(CC)CCOc1ccc(/C(=C(/Cl)c2ccccc2)c2ccccc2)cc1 [cis-clomiphene]
  effects on bone: bone turnover markers (serum bone specific alkaline phosphatase) and BMD by DEXA: estrogenic effects on bone favorably affecting bone turnover markers and BMD

— patent US10758500B2, “Treating androgen deprivation therapy induced hot flashes and bone loss in men using cis-clomiphene” (ASPEN PARK PHARMACEUTICALS, INC., priority 2014, dated 2020)
